# Source: patent publication US9750809B2, “Cancer treatment” (MOREX DEVELOPMENT PARTNERS LLP, priority 2012, dated 2017)
# Tests used:
# [1] = test system: SCCVII squamous cell carcinomas
# Experimental: Mice were euthanized when the tumour volume reached 500 mm^3; and
# SCCVII murine squamous cell carcinoma cells were cultured in D-MEM enriched with 10% fetal bovine serum, 1% penicillin/streptomycin and 1% L-glutamine. Only passages 1-3 were used to initiate tumours. Cells (2×10^5 in 0.05 mL of medium) were then implanted sc into the left thighs of 20-25 g female C3H mice (Charles River Laboratories, Wilmington, Mass.).
# Due to the large number of animals to be dosed and irradiated, it was necessary to split the animals into two equally sized groups: Groups A and B. Animals in each Group A were injected on day 7 after tumour implantation, while animals in each Group B were injected on day 8 post tumour implantation.
# The animals in Group A were irradiated 8 days, and those in Groups B were irradiated 9 days after tumour implantation. Mice were anesthetized (sodium pentobarbital, ˜60 μg/g i.p.) and positioned for irradiation with the tumour-bearing leg extended across a 2-cm diameter collimated irradiation port. Tumours were irradiated using a single dose fraction of 32 gy at a dose-rate of 2.0 Gy/min using a Philips RT-100 set, operating at 100 kVp and 8 mA.
# Tumours were measured 2-3 times per week and the mice were killed humanely when the calculated tumour volume (x^2y/2, where x is the shorter surface dimension) exceeded 500 mm^3.
# Dosimetry for X-irradiation was carried out using a thimble ionization chamber applying the 1996 IPEB code of practice.
# [2] = mouse, in vivo
# Experimental: Direct current plasma-atomic emission spectroscopy [DCP-AES] (ARL/Fisons Model SS-7) was used (detection limit: 0.1 μg B/mL) to determine boron concentrations in tissues of individual mice. Samples (50-130 mg) were digested at 60° C. with sulfuric acid:nitric acid (1:1). Triton X-100 and water were added to give final concentrations of ˜50 mg tissue/mL, 15% total acid v/v and 5% Triton X-100 v/v. […] It is known that the ether linkages between the porphyrin and carborane cages remain intact in vivo.
# [3] = 150 mg/kg MTL005 + 32 Gy vs 32 Gy alone
# [4] = 150 mg/kg MTL005 i.p. one day prior to 32 Gy X-rays, 11 mice
substance,measurement,setting,value
"copper meso-5,15-bis[3-[(1,2-dicarba-closo-dodecaboranyl)methoxy]phenyl]-meso-10,20-dinitroporphyrin [MTL005]",Number of surviving mice compared with X-rays alone,[1]; [3],higher
same,"Tumour control compared with X-rays alone (Kaplan-Meier, FIG. 2)",[1]; [3],greater tumour control
same,% Tumour control,[1]; [4],54.5%
same,"Controlled tumours (volume of 0 mm^3), number of mice",[1]; [4],6
same,Mice alive at 62 days with observable tumours,[1]; [4],2
same,Number of controlled tumours compared to radiation alone,[1]; 32 Gy,doubled
same,Retention of active sensitiser in the tumour after single administration,[2],still a significant concentration of active sensitiser in the tumour
